Assays:
Format in all cases: ADME, organism-based
[1] = Cmax in Swiss Webster mouse at 50 mg/kg, po administered as single dose via gavage by LC/MS analysis; parameters: dose 50 mg/kg, route oral; details: in vivo
[2] = AUC in Swiss Webster mouse at 50 mg/kg, po administered as single dose via gavage by LC/MS analysis; details: in vivo
[3] = Ratio of drug level in brain to plasma in Swiss Webster mouse at 5 mg/kg, ip measured after 1 hr by LC/MS analysis; details: for Kp at 1 h: Swiss Webster, brain/plasma, read-out: BPR
[4] = Volume of distribution at steady state in Swiss Webster mouse at […], iv administered as single dose by LC/MS analysis; details: in vivo, read-out: Vdss
[5] = Oral bioavailability in Swiss Webster mouse at 50 mg/kg administered as single dose via gavage by LC/MS analysis; details: in vivo
[6] = Drug level in Swiss Webster mouse plasma at 5 mg/kg, ip measured after 1 hr by LC/MS analysis
[7] = Drug level in Swiss Webster mouse brain at 5 mg/kg, ip measured after 1 hr by LC/MS analysis; details: read-out: Drug uptake

Row | Cmax [1] | AUC [2] | Kp at 1 h [3] | Vd [4] | bioavailability [5] | concentration at 1 h [6] | concentration at 1 h [7] | BPR ([3]; brain, 1 h) | SMILES
1 | 2.8 µM | 12.8 µM·h | – | – | – | – | – | – | O=C(Nc1ccc(F)c(-c2nc3ncc(-c4cc(F)ccc4F)cc3[nH]2)c1)N1CCCC1
2 | 9.5 µM | 35.7 µM·h | 0.01 | – | – | – | – | – | O=C(Nc1ccc(F)c(-c2nc3ncc(-c4ccc(F)cc4F)cc3[nH]2)c1)N1CCCC1
3 | 1.07 µM | 3.7 µM·h | – | – | – | – | – | – | O=C(Nc1ccc(F)c(-c2nc3ncc(-c4cncc(F)c4)cc3[nH]2)c1)N1CCCC1
4 | 39.3 µM | 667 µM·h | 0.23 | 0.7 to 1.1 L/kg | 70% | 8.8 µM | 1.9 µM | – | Cc1nc(C)c(C(=O)Nc2ccc(F)c(-c3nc4ncc(-c5ccccc5Cl)cn4n3)c2)o1
5 | 1.08 µM | 1.24 µM·h | 0.08 | – | – | – | – | – | O=C(Nc1ccc(F)c(-c2nc3ncc(C(F)(F)F)cc3[nH]2)c1)N1CCCC1
6 | 6.27 µM | 24.3 µM·h | 0.04 | – | – | – | – | – | O=C(Nc1ccc(F)c(-c2nc3ncc(-c4ccc(F)cc4)cc3[nH]2)c1)N1CCCC1
7 | 54.4 µM | 765 µM·h | 0.12 | – | – | – | – | – | Cc1nc(C)c(C(=O)Nc2ccc(F)c(-c3nc4ncc(-c5ccccn5)cn4n3)c2)o1
8 | 2.23 µM | 11.6 µM·h | 0.02 | – | – | – | – | – | O=C(Nc1ccc(F)c(-c2nc3ncc(-c4ccccc4F)cc3[nH]2)c1)N1CCCC1
9 | 0.13 µM | 0.328 µM·h | – | – | – | – | – | – | O=C(Nc1ccc(F)c(-c2nc3ncc(-c4ccc(O)cc4)cc3[nH]2)c1)N1CCCC1
10 | 6.67 µM | 27.5 µM·h | 0.02 | – | – | – | – | – | O=C(Nc1ccc(F)c(-c2nc3ncc(-c4ccc(F)c(F)c4)cc3[nH]2)c1)N1CCCC1
11 | 4.8 µM | 21.5 µM·h | – | – | – | – | – | – | O=C(Nc1ccc(F)c(-c2nc3ncc(-c4cc(F)cc(F)c4)cc3[nH]2)c1)N1CCCC1
12 | 7 µM | 35.8 µM·h | – | – | – | – | – | – | O=C(Nc1ccc(F)c(-c2nc3ncc(-c4cccc(F)c4)cc3[nH]2)c1)N1CCCC1
13 | 31.1 µM | 262 µM·h | 0.02 | 0.7 to 1.1 L/kg | 70% | – | – | – | O=C(Nc1ccc(F)c(-c2nc3ncc(-c4ccccn4)cn3n2)c1)N1CCC(F)(F)C1
14 | 25.6 µM | 73.5 µM·h | – | – | – | – | – | – | O=C(Nc1ccc(F)c(-c2nc3ncc(-c4cccnc4F)cc3[nH]2)c1)N1CCCC1
15 | 1.83 µM | 10.8 µM·h | – | – | – | – | – | – | O=C(Nc1ccc(F)c(-c2nc3ncc(-c4cccc(F)c4F)cc3[nH]2)c1)N1CCCC1
16 | – | 20.7 µM·h | – | – | – | – | – | 0.04 | O=C(Nc1ccc(F)c(-c2nc3cc(-c4ccccc4)cnc3[nH]2)c1)N1CCCC1
